Data on three molecules can be found in patent US10888608B2, “Costimulation of chimeric antigen receptors by MyD88 and CD40 polypeptides” (BELLICUM PHARMACEUTICALS, INC., priority 2014, dated 2021).

For data set [1] the following is noted: cited from earlier work.
Data set [2] has as its system iC9-CD19.ζ-MC CAR-modified T cells. Description: Raji tumor NSG mouse model with iC9-CD19.ζ-MC CAR T cells and rimiducid (Example 19). It counts as in vivo, mice. As for the experimental part: FIG. 40A-FIG. 40C provide results of the enhancement of CD19 CAR-T cell efficacy in vivo by the MyD88/CD40 chimeric costimulatory molecule using the constructs of FIG. 37A-FIG. 37E. FIG. 40A: NSG mice (n=5 per group) were engrafted with Raji-luciferase tumor cells and then treated with non-transduced (NT) or iC9-CD19.ζ-MC CAR-modified T cells on day 3. Tumor growth was measured by IVIS imaging and calculated by whole-body BLI, as shown in photos. FIG. 40B provides a graph of bioluminescent counts (BLI counts) and FIG. 40C provides a graph of (Kaplan-Meier analysis from (A)).
FIG. 41A-FIG. 41C provide results of assays of the titration of inducible chimeric Caspase-9 expressing cells, using the constructs of FIG. 37A-FIG. 37E, with rimiducid. FIG. 41A and FIG. 41B: NSG mice (n=5 per group) were engrafted with CD19^+ Raji lymphoma cells and treated with 5×10^6 iC9-CD19.ζ-MC/luciferase-transduced T cells at day 3. After 6 days, mice were treated i.p. with log dilutions of rimiducid (0.00005-5 mg/kg). BLI of CAR-T cells was assessed prior to rimiducid treatment and at 24 and 48 hours post-injection. […] FIG. 41C provides graphs of serum cytokine levels, which were measured from each group before (black line) and 24 hours post-administration (gray line) of rimiducid. *P-value=<0.01.
5×10^5 Raji tumor cells were injected i.v. into NSG mice. On day 3, CD19 CAR-modified T cells were injected i.v. and bioluminescence (BLI) was measured for either tumor or T cells on a weekly basis by IVIS imaging. […]
FIG. 40 provides the results of mouse in vivo efficacy assays using the various CD19-specific CAR constructs. […] Tumor growth was measured by IVIS imaging and calculated by whole-body BLI (B). […]
FIG. 41 provides the results of mouse in vivo assays including CD19-specific CAR constructs and the Caspase-9 safety switch. […] BLI of CAR-T cells was assessed prior to rimiducid treatment and at 24 and 48 hours post-injection. C) Serum cytokine levels were measured from each group before (black line) and 24 hours post-administration (orange line) of rimiducid. *P-value=<0.01.

The subject of data set [3] is cells. Description: AP1903 amount needed in vitro for effective signaling of cells. In kind it is cell-based. The protocol:
The fixed dose of AP1903 for injection used, for example, may be 0.4 mg/kg intravenously infused over 2 hours. The amount of AP1903 needed in vitro for effective signaling of cells is about 10-100 nM (MW: 1412 Da). This equates to 14-140 μg/L or ˜0.014-0.14 mg/kg ([…]). The dosage may vary according to the application, and may, in certain examples, be more in the range of 0.1-10 nM, or in the range of 50-150 nM, 10-200 nM, 75-125 nM, 100-500 nM, 100-600 nM, 100-700 nM, 100-800 nM, or 100-900 nM. Doses up to 1 mg/kg were well-tolerated in the Phase I study of AP1903 provided above.

Data set [4] concerns CD3^+ ΔCD19^+ cells. Description: Phase I clinical trial: iCasp9^+ allodepleted T cells after haplo-CD34^+ stem cell transplantation, AP1903 given for GvHD. It counts as in vivo, human. An excerpt:
This example presents results of a phase 1 clinical trial using an alternative suicide gene strategy. Briefly, donor peripheral blood mononuclear cells were co-cultured with recipient irradiated EBV-transformed lymphoblastoid cells (40:1) for 72 hrs., allodepleted with a CD25 immunotoxin and then transduced with a retroviral supernatant carrying the iCasp9 suicide gene and a selection marker (ΔCD19); ΔCD19 allowed enrichment to >90% purity via immunomagnetic selection.
Patients developing grade 1 GvHD were treated with 0.4 mglkg AP1903 as a 2-hour infusion. Protocols for administration of AP1903 to patients grade 1 GvHD were established as follows. Patients developing GvHD after infusion of allodepleted T cells are biopsied to confirm the diagnosis and receive 0.4 mg/kg of AP1903 as a 2 h infusion. […] Patients developing grades 2-4 GvHD were administered standard systemic immunosuppressive therapy per institutional guidelines, in addition to the AP1903 dimerizer drug.
Three patients received iCasp9^+ T cells after haplo-CD34^+ stem cell transplantation (SCT), at dose levels between about 1×10^6 to about 3×10^6 cells/kg.

Data set [5] deals with Caspase-9. Description: Caspase mutant classes: basal activity and ligand IC50. To be noted: mutants marked *, predicted. Further details: species or system human. An excerpt:
Modified Caspase-9 Polypeptides with Lower Basal Activity and Minimal Loss of Ligand IC50
Even though homo-dimerization of wild-type initiator Caspase-9 is energetically unfavorable, making them mostly monomers in solution [14-16], the low-level inherent basal activity of unprocessed Caspase-9 [15, 17] is enhanced in the presence of the Apaf-1-based “apoptosome”, its natural allosteric regulator [6]. Moreover, supra-physiological expression levels and/or co-localization could lead to proximity-driven dimerization, further enhancing basal activation. The modified cells of the present application may comprise nucleic acids coding for a chimeric Caspase-9 polypeptide having lower basal signaling activity. Polynucleotides comprising Caspase-9 mutants with lower basal signaling may be expressed in the modified cells used for cell therapy herein. […] In some examples, the amount of dimerizer administered may be determined as an amount designed to remove the highest amount, at least 80% or 90% of the modified cells. In other examples, the amount of dimerizer administered may be determined as an amount designed to remove only a portion of the modified cells, in order to alleviate negative symptoms or conditions, while leaving a sufficient amount of therapeutic modified cells in the patient, in order to continue therapy. […]

The mark [6] stands for this setting: rimiducid administered at objective evidence of sCRS.

Substitutions are numbered along the chain they refer to. In names and notes the source's numbering stands. Where two headings read alike, the source gives them in different places.

For the molecule `CC[C@H](C(=O)N1CCCC[C@H]1C(=O)O[C@H](CCc1ccc(OC)c(OC)c1)c1cccc(OCC(=O)NCCNC(=O)COc2cccc([C@@H](CCc3ccc(OC)c(OC)c3)OC(=O)[C@@H]3CCCCN3C(=O)[C@@H](CC)c3cc(OC)c(OC)c(OC)c3)c2)c1)c1cc(OC)c(OC)c(OC)c1` (relative stereo) [AP1903, 2-Piperidinecarboxylic acid, 1-[(2S)-1-oxo-2-(3,4,5-trimethoxyphenyl)butyl]-, 1,2-ethanediylbis [imino(2-oxo-2,1-ethanediyl)oxy-3,1-phenylene[(1R)-3-(3,4-dimethoxyphenyl)propylidene]] ester, [2S-[1(R*),2R*[S*[S*[1(R*),2R*]]]]]-(9Cl)], in data set [1] (0.01-1.0 mg/kg), the “plasma levels versus dose” value is on record as “directly proportional to dose”. In data set [1] (2 hours post-dose), the “plasma levels, % of maximal concentration” value is listed as around 7%. Also, the “plasma levels, % of maximal concentration” value in data set [1] (10 hours post-dose) is given as around 1%. For the same molecule, in data set [1] (Phase 1 study in volunteers), the serious adverse events entry is on record as “No serious adverse events occurred” and the “severity of adverse events” value is “mild in severity”. The doses well-tolerated result in data set [1] (Phase I study) was “up to 1 mg/kg”. In data set [1] (single doses 0.01-1.0 mg/kg infused IV over 2 hours), the “mean Cmax / plasma concentrations” value was 10 to 1275 ng/mL. The “adverse events possibly related to AP1903” value in data set [1] (vasodilatation (facial flushing), 1 volunteer at 1.0 mg/kg) is “Only one adverse event was considered possibly related to AP1903”. The “CAR T cell elimination on titration” value in data set [2] (iCaspase-9 safety switch, titrated rimiducid) is listed as “partial T cell elimination that still preserved CAR-T cell function”. In addition, in data set [2] (setting [6]), the “resolution of clinical sCRS” value is recorded as “complete resolution of clinical sCRS without compromising tumor control” and the “time to normalization of cytokines” value was at most 24 h. In data set [3], the “amount needed in vitro for effective signaling of cells” value lay in the range of 10 to 100 nM. In addition, in data set [4] (after AP1903 administration), the “time to resolution of skin and liver aGvHD” value is at most 24 h. The “ablation of CD3^+ ΔCD19^+ cells” value in data set [4] (within 30 minutes of infusion, patients with grade I/II aGvHD) is on record as above 90%. Moreover, in data set [4] (within 24 hours), the “further reduction of CD3^+ ΔCD19^+ cells” value is “further log reduction”.

B1: N405Q-S144Aco: Caspase-9 double mutant, class predicted (protein, UniProt P55211 1-416, looked up, variant N405Q S144A)
chain: MDEADRRLLRRCRLRLVEELQVDQLWDALLSRELFRPHMIEDIQRAGSGSRRDQARQLIIDLETRGSQALPLFISCLEDTGQDMLASFLRTNRQAAKLSKPTLENLTPVVLRPEIRKPEVLRPETPRPVDIGSGGFGDVGALEALRGNADLAYILSMEPCGHCLIINNVNFCRESGLRTRTGSNIDCEKLRRRFSSLHFMVEVKGDLTAKKMVLALLELAQQDHGALDCCVVVILSHGCQASHLQFPGAVYGTDGCPVSVEKIVNIFNGTSCPSLGGKPKLFFIQACGGEQKDHGFEVASTSPEDESPGSNPEPDATPFQEGLRTFDQLDAISSLPTPSDIFVSYSTFPGFVSWRDPKSGSWYVETLDDIFEQWAHSEDLQSLLLRVANAVSVKGIYKQMPGCFQFLRKKLFFKTS
modifications: codon optimized
notes: Caspase-9 double mutant, class predicted
For B1, in data set [5], the “Basal Activity” value is recorded as “Decreased”.

B2: N405Q-T317Sco: Caspase-9 double mutant, class predicted (protein, UniProt P55211 1-416, looked up, variant N405Q T317S)
chain: B1 chain with A144S, T317S
modifications: codon-optimized
notes: as for B1
In the case of B2, the “Basal Activity” value in data set [5] was “Decreased”.
